The values below come from article PMC12606464, “Investigating NFE2L1 activators for targeted protein aggregate clearance: a follow-up study” (RSC Medicinal Chemistry, 2025).

Data set [1] deals with chymotrypsin-like activity of the 26S proteasome. The data set can be described thus: Proteasome activity assay in HEK293 cell lysates. The data set is classed as cell-based, human. The conditions noted are these: 7.5 μM, 16 h; for Proteasome chymotrypsin-like activity, geometric mean (treatment): HEK293 lysates, 37 °C, DMSO control = 1; for Proteasome chymotrypsin-like activity, geometric mean of ratios: treatment/control, ratio paired t test, HEK293. The protocol:
Building on previous findings, we investigated how selected RUN compounds influence proteasomal function itself. Specifically, we examined the chymotrypsin-like activity of the 26S proteasome following a 16 hour treatment with 7.5 μM RUN compounds in the HEK293 cell line. […] In addition, two other cell lines, MCF7 and SH-SY5Y, were measured (see the SI, Fig. S6).
Fig. 3 (A) HEK293 cells were treated with RUN compounds at a concentration of 7.5 μM for 16 hours. DMSO was used as a vehicle control. Proteasome chymotrypsin-like activity was measured in cell lysates at 37 °C. Data came from three biological replicates (n = 3). Statistical analysis was done using ratio paired t-tests corrected for multiple comparisons with Holm–Šídák's method (α = 0.05). *p < 0.05. Detailed results of the analysis are shown in SI Table S7. (B) RUN-89 protects against polyQ-mediated toxicity in an NFE2L1-dependent manner. HCT116 parental cells (WT) and two independent DDI2 knockout clones (KO 04 and KO 11), in which NFE2L1 activation is impaired, were transiently transfected with plasmids encoding non-aggregating EGFP-HttQ23 or aggregation-prone EGFP-HttQ74. Cells were treated with 1 or 3 μM RUN-89 for 48 hours, and viability was measured using the alamarBlue assay. […] Data are shown as the Geomean ± GeoSD from four independent biological replicates (n = 4). Statistical analysis was performed on log2-transformed values using two-way repeated-measures ANOVA followed by Šídak's multiple comparison test. (C right) Parental SH-SY5Y cells (without α-synuclein expression) were treated in the same manner. (C left) The protective effect of RUN compounds was assessed by rotenone-induced α-synuclein proteotoxicity in SH-SY5Y cells, which mimics the PD-like phenotype. Cells were pre-treated with increasing concentrations of RUN compounds (0.312, 0.625, 1.25, and 2.5 μM) for 4 hours and then rotenone (1.125 μM) treatment was done for 24 hours. […]
2.7 Proteasome activity assay
The corresponding cell lines (HEK293, MCF7, or SH-SY5Y) were seeded into 6-well plates and allowed to adhere overnight under standard culture conditions. On the following day, HEK293 cells were treated with 7.5 µM RUN compounds, whereas MCF7 and SH-SY5Y cells were treated with 5 µM RUN compounds, for 16 hours each. After treatment, cells were harvested, resuspended in lysis buffer (50 mM HEPES, pH 7.5; 5 mM EDTA; 150 mM NaCl; 2 mM ATP; 1% Triton), and centrifuged at 15,000 rpm for 15 minutes at 4 °C. The resulting lysates (25 µg total protein) were incubated with 200 µM of the fluorogenic substrate Suc-Leu-Leu-Val-Tyr-AMC (Bachem, I1395) in assay buffer (50 mM Tris, pH 8.0; 10 mM MgCl₂; 1 mM ATP; 1 mM DTT) at 37 °C. Free AMC release was detected by measuring fluorescence at 360/460 nm. […]
HEK293 cells were seeded in 6-well plates and incubated for 24 hours before being transfected with a plasmid containing the CMV-XBP-Gluc reporter using Lipofectamine 2000.(4) After 6 hours, the transfected cells were subsequently transferred to 384-well plates, stabilized overnight, and treated with the proteasome inhibitor and ER stress inducer MG132 and/or various concentrations of RUN compounds (1, 5, and 10 µM) or vehicle (DMSO) for 16 hours. Luciferase activity was normalized to cell viability, which was assessed using the alamarBlue assay. The results are expressed as the fold change compared with the DMSO control, with the experiment conducted in biological triplicate. […]

In data set [2] the test system is HEK293 cells. The data set can be described thus: alamarBlue cytotoxicity assessment in HEK293 cells. The data set is classed as cell-based, human. Conditions: for Mean 1 (viability; 0 µM = 100): Fig. S2, n = 3; for Tox [% of ctrl.]: HEK293, alamarBlue, 16 h, concentration not given. In a few lines: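 HEK293 cells exposed 16 h to compound at 1.25, 2.5, 5, 7.5 and 10 µM, with DMSO as vehicle control. Viability read by alamarBlue; means ± SD of three independent experiments.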
(Resazurin is reduced to fluorescent resorufin, in cell work by metabolically active cells.)

For the molecule `COc1ccc(/C=C2\CC(N)C/C(=C\c3ccc(OC)c(OC)c3)C2=O)cc1OC` (centres unmarked) [RUN-81], the “Proteasome chymotrypsin-like activity, geometric mean (treatment)” value in data set [1] was 1.21. Besides, in data set [1], the “Proteasome chymotrypsin-like activity, geometric mean of ratios” value was determined as 1.21. Further, the “Mean 1 (viability; 0 µM = 100)” value in data set [2] (5 uM) is 80.55; in data set [2] (10 uM), 79.08; in data set [2] (1,125 uM), 98.04; in data set [2] (2,5 uM), 92.22; in data set [2] (7,5 uM), 79.02. The “Tox [% of ctrl.]” value in data set [2] was 84% of ctrl.

Take `COc1ccc(/C=C2\CC(NC(=O)C3CCCC3)C/C(=C\c3ccc(OC)c(OC)c3)C2=O)cc1OC` (centres unmarked) [RUN-89]: the “Proteasome chymotrypsin-like activity, geometric mean of ratios” value in data set [1] worked out at 1.36. Further, the “Mean 1 (viability; 0 µM = 100)” value came out at 76.01 in data set [2] (5 uM); 68.72 in data set [2] (10 uM); 100.7 in data set [2] (1,125 uM); 91.49 in data set [2] (2,5 uM); 71.31 in data set [2] (7,5 uM). The “Tox [% of ctrl.]” value in data set [2] was 81% of ctrl.

Take `COc1ccc(/C=C2\CC(NC(=O)c3ccccn3)C/C(=C\c3ccc(OC)c(OC)c3)C2=O)cc1OC` (centres unmarked) [RUN-94]: the “Proteasome chymotrypsin-like activity, geometric mean (treatment)” value in data set [1] was 1.21. Besides, in data set [1], the “Proteasome chymotrypsin-like activity, geometric mean of ratios” value is reported as 1.21. The “Mean 1 (viability; 0 µM = 100)” value was determined as 86.01 in data set [2] (5 uM); 74.87 in data set [2] (10 uM); 105.6 in data set [2] (1,125 uM); 101.6 in data set [2] (2,5 uM); 75.79 in data set [2] (7,5 uM). Further, the “Tox [% of ctrl.]” value in data set [2] is 78% of ctrl.
